Assay [1] deals with T1, β5 subunit of the human constitutive proteasome (CPS) (Homo sapiens, UniProt P28074).
T1 construct: purchased Boston Biochem E-360
The experiment in a line: β5 inhibition assay, human constitutive proteasome (Suc-LLVY-AMC). In kind it is biochemical. The settings on record: IC50 class, Suc-LLVY-AMC substrate. As for the experimental part: The enzymatic activity of the β5 subunit of the human constitutive proteasome (CPS) is analyzed. In another assay, which differs from the assay of the human constitutive proteasome only in using the human immunoproteasome (IPS) the enzymatic activity of the β5 subunit of the human immunoproteasome (IPS) is analyzed. […] Inhibition is indicated as IC50 [nM] (“-”=not measured).

For assay [2], the target named is T2, β5 subunit of the human immunoproteasome (IPS) (Homo sapiens, UniProt P28062).
T2 construct: purchased Boston Biochem E-370
The experiment in a line: β5 inhibition assay, human immunoproteasome (Suc-LLVY-AMC). In kind it is biochemical. The settings on record: IC50 class, Suc-LLVY-AMC substrate. The essentials:
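β5 activity is read as liberated AMC fluorescence (355/460 nm) after 4 h dark reaction at RT with 22.6 μM Suc-LLVY-AMC, stopped by 1 μM bortezomib. Beforehand, 1 nM human IPS and compound sat 10 min at RT in HEPES pH 7.5 buffer containing NaCl, 0.02% SDS and DTT.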

In the next assay the test system is HT-29 cells. The assay is described as follows: CellTiter-Glo luminescent cell viability assay with HT-29 cells (72h incubation). It is filed as cell-based, human. The settings on record: Homo sapiens, HT-29, HT29 cells, read-out: CTG HT29. In a few lines:
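Viability read as CellTiter-Glo luminescence after 72 h compound exposure, with 10 μM staurosporine and DMSO as control wells. Seeding 400 cells per well, compound added 24 h post-plating; IC50 from curve fitting.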

Another assay has as its system hPMBC. The experiment in a line: Chymotrypsin-like ProteasomeGlo assay in hPBMC. It is filed as cell-based. The settings on record: Homo sapiens; read-out: Pglo hPBMC. From the text: Chymotrypsin-like ProteasomeGlo assay in the B-cells isolated from PBMC's following compound addition (IC50). • 1. PBMC's will be isolated from human blood followed by B-cell isolation from the PBMC's using the Miltenyi Isolation Kit. • 2. This experiment will use the Chymotrypsin-like ProteasomeGlo read-out to generate IC50's following compound treatment. • 3. Dilute all compounds 1:100 for the assay. • 4. […] Repeat the DMSO transfer with lane 12. • 5. Lane 12 should not be seeded with any cells. Only medium! • 6. For all steps, make sure the samples and reagents remain cool! • 7. While dealing with the buffy coats, be careful to not let any exposed skin to be in direct contact with the blood.
For the initial steps and to make processing the buffy coats easier, separately process the buffy coats. • a. Cut the tube attached to the buffy coats carefully using a clean, sterile and fresh scalpel. • b. Transfer the blood into 2 individual 50 ml falcons. • c. Add an equal volume of DPBS to the blood in the falcons. • d. Add ˜20 ml of lymphocyte separating medium to two 50 ml falcons. • e. Carefully pour 15-20 ml of the blood+DPBS mix from step c. onto the lymphocyte separating medium from step d. • f. Centrifuge the falcons with the lymphocyte separating medium+blood mix at 800×g for 15 minutes using a swing-out rotor. • g. Following centrifugation, carefully remove the falcons from the centrifuge. • h. The following layers will be observed: • i. Aspirate the plasma layer off carefully without disturbing the different layers. • j. Remove the cell pellet using a pipette into two fresh 50 ml falcons. • k. Fill the falcons with the cells up to 50 ml with DPBS. • l. Centrifuge the falcons at 250×g for 10 minutes using a swing-out rotor (Brake-off). • m. Aspirate the complete DPBS off the cells without disturbing the cell pellet at the bottom of the falcon. • n. Re-suspend the cell pellet in 10 ml of 1×RBC lysis buffer. • o. Incubate the falcons at room temperature in the dark for 10 minutes. • p. After RBC lysis, centrifuge the tubes at 250×g for 10 minutes using a swing-out rotor (brake-off). • (*Note: If the cell pellet is still red or light red, repeat steps n. to p.!) • q. Re-suspend the cell pellet in DPBS up to 50 ml in the falcon. • r. Centrifuge the falcons at 250×g for 10 minutes using a swing-out rotor (Brake-off). • s. Aspirate the DPBS off the cells without disturbing the cell pellet at the bottom of the falcon. • t. Repeat the wash step as described in steps q. to s. 2× times more (total number of washes is 3×). • u. Aspirate the DPBS completely off the cell pellet after the last wash without disturbing the cell pellet. • v. Re-suspend the cell pellet in 20 ml of PBMC cell medium. • w.
• a. Remove the plates with cells from the incubator. • b. Take all the plates including the compound plate, intermediate plate and Staurosporine plate to the ECHO. • c. Click on “Open” in the ECHO software and select the protocol “QLI5_25ul_30 uM-Grenier”. • d. Follow the on-screen prompts and instructions once you click “Start” to insert the compound plate, intermediate plate and destination plates. • e. Change the final number of destination plates on the program. • f. Follow the on-screen prompts and instructions once you click “Start” to load the Staurosporine and destination plates. • g. Once all the compounds, DMSO and Staurosporine have been transferred, place the destination plates in a wet tissue box. • h. Place the destination plates back into the incubator and incubate at 37° C., 5% CO2 for 105 minutes. • i. Re-seal all the compound+Stauro diamond and intermediate plates and store in the dark. Chymotrypsin like ProteasomeGlo Assay • 1. Thaw the components of the ProteasomeGlo assay at room temperature including the ProteasomeGlo Buffer, the lyophilized Luciferin Detection Reagent and the Suc-LLVY-Glo Substrate. • 2. […]

Assay [3] concerns A549 (human lung carcinoma cell line). The experiment in a line: Glo assay of A549 cells (Table 3; ProteasomeGlo plating scheme). In kind it is cell-based. The settings on record: Homo sapiens; A549 cells; read-out: PGLo A549. The essentials: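 After acoustic compound transfer, plates incubate 105 min (37° C., 5% CO2). Proteasome-Glo reagent containing Suc-LLVY-Glo substrate is added, plates are shaken, then luminescence is measured after 10-15 min to derive IC50 [nM]. Staurosporine and DMSO serve as controls.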

As for `CC(=O)N[C@H]1CC(=O)NCCCCOc2ccc(C)c(c2)CNC(=O)[C@H](CCc2ccccc2)NC1=O` [Compound 168, N-((10S,13S)-1^4-methyl-8,11,14-trioxo-13-phenethyl-2-oxa-7,12,15-triaza-1(1,3)-benzenacyclohexadecaphane-10-yl)acetamide], the IC50 in assay [1] is over 5000 nM; in assay [2] it was 1000 to 5000 nM; in the assay with HT-29 cells it was 100 to 500 nM; in the assay with hPMBC, 1000 to 5000 nM.

`CC(=O)N[C@H]1CC(=O)NCCCOc2ccc(C)c(c2)CNC(=O)[C@H](CCc2ccccc2)NC1=O` [Compound 253, N-((9S,12S)-1^4-methyl-7,10,13-trioxo-12-phenethyl-2-oxa-6,11,14-triaza-1(1,3)-benzenacyclopentadecaphane-9-yl)acetamide]: the IC50 with HT-29 cells was 100 to 500 nM; with hPMBC it was over 5000 nM.

Regarding `CC(=O)N[C@H]1CC(=O)N2CCCC(C2)Oc2ccc(C)c(c2)CNC(=O)[C@H](CCc2ccccc2)NC1=O` (stereo partly drawn) [Compound 255, N-((7S,10S)-3^4-methyl-6,9,12-trioxo-7-phenethyl-2-oxa-5,8-diaza-1(3,1)-piperidina-3(1,3)-benzenacyclododecaphane-10-yl)acetamide], the IC50 is 100 to 500 nM in the assay on HT-29 cells, over 5000 nM in assay [3] and over 5000 nM in the assay on hPMBC.

Consider `CC(=O)N[C@H]1CC(=O)N(C)CCCOc2ccc(C)c(c2)CNC(=O)[C@H](CCc2ccccc2)NC1=O` [Compound 256, N-((9S,12S)-1^4,6-dimethyl-7,10,13-trioxo-12-phenethyl-2-oxa-6,11,14-triaza-1(1,3)-benzenacyclopentadecaphane-9-yl)acetamide], for which the values for the IC50 with HT-29 cells and in the assay with hPMBC were 100 to 500 nM and over 5000 nM, respectively.

As for `CC(=O)N[C@H]1CC(=O)N2CCCC(COc3ccc(C)c(c3)CNC(=O)[C@H](CCc3ccccc3)NC1=O)C2` (stereo partly drawn) [Compound 257, N-((8S,11S)-4^4-methyl-7,10,13-trioxo-8-phenethyl-3-oxa-6,9-diaza-1(3,1)-piperidina-4(1,3)-benzenacyclotridecaphane-11-yl)acetamide], the IC50 lay in the range of 100 to 500 nM in the assay on HT-29 cells and 1000 to 5000 nM in the assay on hPMBC.

Regarding `CC(=O)N[C@H]1CC(=O)N2CC(COc3ccc(C)c(c3)CNC(=O)[C@H](CCc3ccccc3)NC1=O)C2` [Compound 259, N-((8S,11S)-4^4-methyl-7,10,13-trioxo-8-phenethyl-3-oxa-6,9-diaza-1(3,1)-azetidina-4(1,3)-benzenacyclotridecaphane-11-yl)acetamide], the values for the IC50 in the assay with HT-29 cells and in the assay with hPMBC were 100 to 500 nM and over 5000 nM, respectively.

Consider `CC(=O)N[C@H]1CC(=O)N2CCC2(C)COc2ccc(C)c(c2)CNC(=O)[C@H](CCc2ccccc2)NC1=O` (stereo partly drawn) [Compound 260, N-((8S,11S)-1^2,4^4-dimethyl-7,10,13-trioxo-8-phenethyl-3-oxa-6,9-diaza-1(2,1)-azetidina-4(1,3)-benzenacyclotridecaphane-11-yl)acetamide], for which the IC50 with HT-29 cells was 100 to 500 nM; with hPMBC it was over 5000 nM.

Take `Cc1ccc2cc1CNC(=O)[C@H](CCc1ccccc1)NC(=O)[C@@H](NC(=O)OCc1ccccc1)CCCC(=O)N1CCC(CO2)C1` (stereo partly drawn) [Compound 351, benzyl ((8S, 11S)-4^4-methyl-7,10,15-trioxo-8-phenethyl-3-oxa-6,9-diaza-1(3,1)-pyrrolidina-4(1,3)-benzenacyclopentadecaphane-11-yl)carbamate]: the IC50 with HT-29 cells is 100 to 500 nM; in assay [3] it was 100 to 500 nM; in the assay with hPMBC it was under 100 nM.

For `Cc1cc2cc(c1C)CNC(=O)[C@H](CCc1ccccc1)NC(=O)[C@@H](NC(=O)OCc1ccccc1)CCCC(=O)NCCCCO2` [Compound 354, benzyl ((12S,15S)-14,15-dimethyl-8,13,16-trioxo-15-phenethyl-2-oxa-7,14,17-triaza-1(1,3)-benzenacyclooctadecaphane-12-yl)carbamate], the IC50 in the assay with HT-29 cells was 100 to 500 nM; in the assay on hPMBC, under 100 nM.
